According to paper PMC4967449, “The role of acid-base imbalance in statin-induced myotoxicity” (Translational Research, 2016):
Counter-ions that a name gives are not always drawn. Like-named read-outs stand apart in the source and are kept apart here. Values belong to the compound of their own block, whether it stands above or below them.

Experiments:
[1] = tested on: undifferentiated C2C12 cells; experiment: MTT cytotoxicity in undifferentiated C2C12 cells in medium of different pH; format: cell-based; settings: Mus musculus, 72 hours, read-out: IC50 values of statins
Experimental: (§1) The effect of medium pH alteration on the cytotoxicity of statins was evaluated by MTT and LDH cytotoxicity assays. Both undifferentiated and differentiated C2C12 cells were used in these studies. […] Before starting treatment, the medium was replaced by a fresh one with modified pH (6.8, 7.4, and 7.8). […] Positive control samples with 100% cell death were obtained by treating cells with 1% Triton X-100. Produced formazan crystals were dissolved in DMSO, and the absorbance was measured at 570 nm using EnVision Multilabel Plate Reader (PerkinElmer). Results were expressed as percentage of the control, and IC50 was calculated using prism 6 (GraphPad Software Inc).

[2] = tested on: differentiated C2C12 cells; experiment: MTT cytotoxicity in differentiated C2C12 cells in medium of different pH; format: cell-based; settings: Mus musculus, acidic medium (pH 6.8), 72 hours, read-out: IC50 values of statins
Experimental: as §1

[3] = tested on: differentiated C2C12 cells; experiment: Cellular uptake of statins by differentiated C2C12 cells in medium of altered pH; format: cell-based, mouse; settings: for intracellular levels of pravastatin: 1 μmol/L, LC MS/MS
Experimental: (§2) Samples temperature was kept at 4°C, and column temperature was set at 40°C.

[4] = tested on: undifferentiated C2C12 cells; experiment: Cellular uptake of statins by undifferentiated C2C12 cells in medium of altered pH; format: cell-based, mouse; settings: 1 μmol/L, LC MS/MS
Experimental: as §2

[5] = Interconversion / hydrolysis of the lactone form of statins in human plasma of modified pH; format: in vitro ADME; settings: for proportion of lactone converted to the hydroxy acid form: 50 μmol/L, 24 hours at 37°C; for half-life at 50 μmol/L: 37°C
Experimental: (§3) The interconversion of the lactone and hydroxy acid forms of simvastatin and pravastatin was investigated by incubating tested compounds with human plasma, PBS, and DMEM culture medium of defined pH values at 37°C for a predetermined period of time. […] Human plasma and PBS samples were incubated in C25 classic incubator shaker (New Brunswick Scientific). For DMEM samples, CO2 supply was maintained at 5% throughout experiment in a tissue culture incubator. The pH of different matrices was adjusted to simulate physiological pH, acidosis, and alkalosis as described previously. After incubation, the interconversion reaction was stopped at predetermined time points by adding 50 μL of ice-cold ammonium acetate buffer (100 mmol/L, pH 4.5) to 100 μL of tested samples.[14] Six replicates were tested at each pH level, and the concentrations of parent and corresponding forms were measured by fully validated HPLC analytical methods.
(§4) Fully validated HPLC-UV methods were used to determine the concentrations of the lactone and the corresponding hydroxy acid forms of simvastatin and pravastatin after interconversion studies in human plasma, PBS, and DMEM culture medium of different pH. Samples for HPLC analysis were prepared by protein precipitation followed by liquid-liquid extraction. A 100 μL of human plasma or DMEM samples were pipetted into 1.5 mL Eppendorf tubes, and 50 μL of ammonium acetate buffer (100 mmol/L, pH 4.5) along with 10 μL of internal standard solution (4,4-dichlorodiphenyltrichloroethane [DDT] or griseofulvin 100 μg/mL for simvastatin and pravastatin containing samples, respectively) was added, and samples were vortex mixed for 30 seconds. Proteins were precipitated by the addition of 300 μL of chilled ACN, and samples were vortex mixed for 1 minute and then centrifuged at 900g for 10 minutes at 4°C. After centrifugation, the ACN layer was transferred into new glass test tubes, and 3 mL of methyl tert-butyl ether were added to each sample, vortex mixed for 10 minutes, and centrifuged at 1,615g for 10 minutes at 4°C. Finally, the upper organic layers were separated using glass Pasteur pipette, transferred into new glass tubes, and the contents of the tubes were evaporated to dryness using Techne Sample Concentrator (Bibby Scientific Ltd, UK). The dry residues were reconstituted with 100 μL of the mobile phase, vortex mixed, and placed into appropriate HPLC vials. Samples from PBS were extracted in the same way with one exception that the protein precipitation step was skipped.
(§5) HPLC analysis was performed using Waters Alliance 2965 separation module equipped with Waters 996 Photodiode Array Detector and integrated autosampler. System control and data processing were performed using Empower software. Chromatographic separation was achieved by ACE Excel Super C18 column (100 × 3 mm, 3 μm) under isocratic conditions with mobile phase consisting of ACN: 5 mmol/L ammonium acetate buffer, pH 4.5 (73:27 and 55:45, v/v for simvastatin and pravastatin samples, respectively). The flow rate was set at 0.4 mL/min for simvastatin and 0.3 mL/min for pravastatin samples. Samples temperature was kept at 4°C, and column temperature was set at 40°C.

[6] = Hydrolysis of the lactone form of statins in phosphate buffer saline of modified pH; format: physicochemical; settings: phosphate buffer saline (PBS), 37°C
Experimental: (§6) The pH of DMEM culture medium was adjusted to the target values (6.8–7.8) by adding an appropriate volume of either 1.0 N HCl or NaOH to a medium containing 20 mmol/L 4-2-hydroxyethyl-1-piperazineethanesulfonic acid (HEPES) buffer. The pH was measured at incubation temperature (37°C) by Mettler Toledo T50 pH titrator. […] After equilibration, minor adjustment in pH was occasionally required to reach the desired final pH.[35] Maintaining medium under constant CO2 environment of 5% stabilizes the pH through CO2-HCO3^− equilibrium.[36] The pH of phosphate buffer saline (PBS) was adjusted to the target values (6.8–7.8) in the same way without the need for equilibration.
as §3, §4
as §5, with “40°C. Chromatographic separation was monitored by photodiode array detector at 238 nm with an injection volume of 20 μL.” for “40°C.”

[7] = Hydrolysis of the lactone form of statins in DMEM culture medium of modified pH; format: physicochemical; settings: 37°C
Experimental: as §6, §3
Fully validated HPLC-UV methods were used to determine the concentrations of the lactone and the corresponding hydroxy acid forms of simvastatin and pravastatin after interconversion studies in human plasma, PBS, and DMEM culture medium of different pH. Samples for HPLC analysis were prepared by protein precipitation followed by liquid-liquid extraction. A 100 μL of human plasma or DMEM samples were pipetted into 1.5 mL Eppendorf tubes, and 50 μL of ammonium acetate buffer (100 mmol/L, pH 4.5) along with 10 μL of internal standard solution (4,4-dichlorodiphenyltrichloroethane [DDT] or griseofulvin 100 μg/mL for simvastatin and pravastatin containing samples, respectively) was added, and samples were vortex mixed for 30 seconds. Proteins were precipitated by the addition of 300 μL of chilled ACN, and samples were vortex mixed for 1 minute and then centrifuged at 900g for 10 minutes at 4°C. […]
HPLC analysis was performed using Waters Alliance 2965 separation module equipped with Waters 996 Photodiode Array Detector and integrated autosampler. […] Chromatographic separation was monitored by photodiode array detector at 238 nm with an injection volume of 20 μL.

increase in uptake at acidic extracellular pH ([3]; 1 μmol/L SVA): more than 2 folds
reduction in uptake under alkaline pH ([3]; 1 μmol/L SVA): approximately 50%
SMILES: CCC(C)(C)C(=O)O[C@H]1C[C@@H](C)C=C2C=C[C@H](C)[C@H](CC[C@@H](O)C[C@@H](O)CC(=O)O)[C@H]21 [SVA, simvastatin hydroxy acid ammonium salt]
IC50 ([1]; acidic medium (pH 6.8)): 2.22 ± 0.04 µM
IC50 ([1]; alkaline medium (pH 7.8)): 16.9 ± 0.48 µM
IC50 ([1]; neutral medium (pH 7.4)): 4.35 ± 0.09 µM
IC50 [2]: 65.4 ± 2.69 µM

intracellular levels of pravastatin [4]: below the limit of quantification
intracellular levels of pravastatin [3]: below the limit of quantification
SMILES: CC[C@H](C)C(=O)O[C@H]1C[C@H](O)C=C2C=C[C@H](C)[C@H](CC[C@@H](O)C[C@@H](O)CC(=O)O)[C@H]21 [PVA, pravastatin hydroxy acid sodium]

intracellular levels of pravastatin [4]: below the limit of quantification
proportion of lactone converted to the hydroxy acid form ([5]; alkaline pH): ~99%
half-life at 50 μmol/L ([5]; pH 6.8, 50 μmol/L): 8.84 ± 0.31 h
half-life at 50 μmol/L ([5]; pH 7.0, 50 μmol/L): 7.39 ± 0.22 h
half-life at 50 μmol/L ([5]; pH 7.2, 50 μmol/L): 6.61 ± 0.95 h
half-life at 50 μmol/L ([5]; pH 7.4, 50 μmol/L): 6.85 ± 0.54 h
proportion of lactone converted to the hydroxy acid form ([5]; physiological pH): ~98%
half-life at 50 μmol/L ([6]; pH 6.8, 50 μmol/L): 21.2 ± 1.75 h
half-life at 50 μmol/L ([6]; pH 7.0, 50 μmol/L): 13 ± 1.38 h
half-life at 50 μmol/L ([6]; pH 7.2, 50 μmol/L): 9.36 ± 1.57 h
half-life at 50 μmol/L ([6]; pH 7.4, 50 μmol/L): 6.89 ± 0.41 h
half-life at 50 μmol/L ([6]; pH 7.6, 50 μmol/L): 5.59 ± 0.49 h
half-life at 50 μmol/L ([6]; pH 7.8, 50 μmol/L): 4.98 ± 0.44 h
half-life at 50 μmol/L ([7]; pH 6.8, 50 μmol/L): 17.3 ± 4 h
half-life at 50 μmol/L ([7]; pH 7.2, 50 μmol/L): 11.9 ± 2.71 h
half-life at 50 μmol/L ([7]; pH 7.4, 50 μmol/L): 9.72 ± 1.42 h
half-life at 50 μmol/L ([7]; pH 7.8, 50 μmol/L): 10.7 ± 0.81 h
intracellular levels of pravastatin [3]: below the limit of quantification
SMILES: CC[C@H](C)C(=O)O[C@H]1C[C@H](O)C=C2C=C[C@H](C)[C@H](CC[C@@H]3C[C@@H](O)CC(=O)O3)[C@H]21 [PVL, pravastatin lactone]
